Patent US10392667B2, “Methods and devices for predicting treatment efficacy of fulvestrant in cancer patients” (Medical Prognosis Institute A/S, priority 2013, dated 2019)
Like-named read-outs stand apart in the source and are kept apart here.

What was measured:
[1] = tested on: NCI60 cell lines; conditions: mean over all NCI60 cell lines (FIG. 8); cited from earlier work
[2] = tested on: ER-positive, locally advanced breast cancer; assay: NEWEST Phase II trial: tumor response by 3D ultrasound after 16 weeks of neoadjuvant fulvestrant; type: in vivo, human; conditions: for overall response rate (CR+PR): 16 weeks
Procedure: NEWEST (Neoadjuvant Endocrine Therapy for Women with Estrogen-Sensitive Tumors; 9238IL/0065) was a randomized, open-label, multicenter, Phase II study involving postmenopausal women with newly diagnosed, ER-positive, locally advanced breast cancer who had received no prior breast cancer treatment ([…]). Eligible patients were randomized 1:1 to receive either fulvestrant 500 mg or 250 mg for 16 weeks preceding surgery. Fulvestrant 500 mg was given as two 5 ml intramuscular injections on days 0, 14, 28 and every 28 days thereafter for 16 weeks. Fulvestrant 250 mg was given as one 5 ml injection on days 0, 28 and every 28 days thereafter for 16 weeks (Kuter et al., Breast Cancer Res. Treat., 133:237-246, 2012).
A total of 211 patients were enrolled in NEWEST. Of these, 173 completed the study and 121 met all protocol criteria. Fresh frozen pre-treatment samples with sufficient RNA (100 ng) was available from 44 patients. Two samples were discarded due to array quality, leaving 42 patients. Of these 42 patients, 22 were in the 500 mg treatment group and 20 were in the 250 mg treatment group.
During the 16-week treatment phase, patients underwent clinical breast examination every 4 weeks. Tumor volume was measured by 3D ultrasound at baseline, week 4, and after 16 weeks of treatment before definitive surgery. Tumor response was defined as complete response (CR, disappearance of all lesions), partial response (PR, at least 65% reduction in tumor volume by 3D ultrasound), disease progression (PD, at least 73% increase in tumor volume), or stable disease (SD, neither partial response nor disease progression). The reduction for partial response was in relation to baseline but for progressive disease was in relation to the smallest tumor volume at any preceding assessment. Objective responders were those patients with a complete response or partial response.

[3] = tested on: Ki67; conditions: after 4 weeks of treatment, patients, cited from earlier work
[4] = tested on: early breast cancer; assay: Trial 223: neoadjuvant anastrozole, response according to RECIST; type: in vivo, human; conditions: patients with outcome information
Procedure: Trial 223 (Smith et al., J. Clin. Oncol., 25:3816-3822, 2007) was a placebo-controlled trial of neoadjuvant anastrozole alone or with gefitinib in early breast cancer. We used pre-treatment samples from patients from arm B and C: anastrozole 1 mg/d for the duration of the 16 week period plus placebo 1 tablet/d orally for 2 weeks. Patients in arm B were followed by gefitinib 250 mg/d orally for 14 weeks whereas patients in arm C continued with placebo for 14 weeks. We received pre-treatment biopsy material from 21 patients in arms B and C with Ki67 measurements after 2 weeks. We received pre-treatment biopsy material from 16 patients in arm C with outcome information according to guidelines set forth in Response Evaluation Criteria in Solid Tumors (RECIST).
The prediction score of the invention (e.g., prediction score for fulvestrant) was tested for the ability to predict response to aromatase inhibition in a small cohort of 21 patients treated with neoadjuvant anastrozole in a similar protocol to that used to test fulvestrant. […] In addition there was no correlation between prediction score and change in Ki67 produced after 2 weeks of anastrozole treatment (N=21, P=0.9).

[5] = 250 mg fulvestrant, patients with array data
[6] = 500 mg fulvestrant for 16 weeks, patients with array data

O=C(c1ccc(OCCN2CCCCC2)cc1)c1c(-c2ccc(O)cc2)sc2cc(O)ccc12 [raloxifene]
GI50 [1]: 8.4 µM

CC/C(=C(\c1ccccc1)c1ccc(OCCN(C)C)cc1)c1ccccc1 [tamoxifen]
GI50 [1]: 4.3 µM

CN(C)CCOc1ccc(/C(=C(/CCCl)c2ccccc2)c2ccccc2)cc1 [toremifene]
GI50 [1]: 13 µM

C[C@]12CC[C@@H]3c4ccc(O)cc4C[C@@H](CCCCCCCCC[S+]([O-])CCCC(F)(F)C(F)(F)F)[C@H]3[C@@H]1CC[C@@H]2O (stereo partly drawn) [Fulvestrant, fulvestrant]
overall response rate (CR+PR) ([2]; 250 mg fulvestrant, 19 patients with array data): 26%
number of partial responders [2, 5]: 5
number of patients with stable disease [2, 5]: 13
number of progressive disease patients [2, 5]: 1
number of non-responders (SD+PD) [2, 6]: 9
number of responders (PR) [2, 6]: 11
overall response rate (CR+PR) ([2]; 500 mg fulvestrant): 50%
GI50 [1]: 63 µM
average reduction in Ki67 ([3]; 250 mg dose): 47%
average reduction in Ki67 ([3]; 500 mg dose): 79%

CC(C)(C#N)c1cc(Cn2cncn2)cc(C(C)(C)C#N)c1 [anastrozole]
number of nonresponders [4]: Seven
number of responders [4]: Nine
